For data set [1], the system named is MM.1S cells. The experiment in a line: Effect of the compound on MM.1S cell proliferation (MTS, 7 days). In kind it is cell-based. As to conditions: Homo sapiens, MM1.S, 168 h, 7 days, MTS, Table 1, read-out: MM.1S Cells Inhibition Activity IC50. The essentials:
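MM.1S cells (20,000/well in RPMI 1640 with 10% FBS) were exposed to a 5-step compound dilution series (0.2% DMSO final) for 7 days at 37 °C, 5% CO2. MTS readout used OD490 minus OD690 after 3–4 h, and IC50 was fitted from three independent repeats.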

A short description of data set [2]: Mouse pharmacokinetic experiment, oral gavage. In kind it is in vivo. As to conditions: ICR mice, female, oral gavage 20 mg/kg, plasma. As to the method: Mouse Pharmacokinetic Experimental Scheme ICR mice, female, 18-22 g, randomly divided into groups with 4 mice per group. The test compounds were administered by oral gavage at a dose volume of 10 mL/kg. The oral solution was prepared using DMSO/PEG-400/water (5:30:65, v/v/v). Mice were fasted for 12 hours prior to the experiment with free access to water. After drug administration, they were allowed to eat uniformly at 2 hours post-dose. The test compounds (20 mg/kg) were orally administered to 4 mice. Blood samples (50 μL) were collected from the orbital vein at the following time points: 5 min, 15 min, 30 min, 1 h, 2 h, 4 h, 6 h, and 24 h. The blood was centrifuged at 12,000 rpm for 2 minutes to separate plasma, which was then stored at −20° C. for blood concentration measurement.

In data set [3] the test system is MV-4-11 cells. The experiment in a line: Inhibition of MV-4-11 cell proliferation (MTS, 7 days). In kind it is cell-based. The note with it: Homo sapiens, MV4-11, 168 h, 7 days, MTS, Table 3, read-out: MV-4-11 Cells Inhibition Activity IC50. The procedure, abridged: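 Measured at 2,000 cells per well in IMDM with 10% FBS, five-fold compound dilutions, 0.2% DMSO final, 7 days at 37° C, 5% CO2. MTS added for 3-4 hours; signal as OD490-OD690. IC50 from three repeated experiments, each in triplicate.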

Data set [4] concerns Mino cells. In words: Inhibition of cell proliferation of Mino cells (MTS, 3 days). As to conditions: Homo sapiens, MINO, 72 h, 3 days, MTS, Table 2, read-out: Mino Cells Inhibition Activity IC50. In kind it is cell-based. The essentials:
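Mino cells in RPMI-1640 with 15% FBS were seeded at 8000 cells/well and treated with 5-fold compound dilutions (final DMSO 0.2%) for 3 days at 37° C. Viability was measured by MTS as OD490−OD690 after 3-4 h. IC50 was fitted from inhibition relative to DMSO and blank, in three repeat experiments.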

Consider `[2H]c1c([2H])c([2H])c(-c2ncc(CNc3cccc4c3C(=O)N(C3CCC(=O)NC3=O)C4=O)o2)c([2H])c1[2H]` (centres unmarked) [Example 45], for which the IC50 was 15 to 30 nM in data set [1], less than 1000 nM in data set [3] and less than 60 nM in data set [4]. This compound came in with an exposure AUC(0-t) in data set [2] greater than 10000 ng·h/mL. The compound further displayed a maximum concentration (Cmax) in data set [2] greater than 2000 ng/mL.
`O=C1CCC(N2C(=O)c3cccc(NCc4cnc(-c5ccc(OC6CC6)cc5)o4)c3C2=O)C(=O)N1` (centres unmarked) [Example 51, 4-(((2-(4-Cyclopropoxyphenyl)oxazol-5-yl)methyl)amino)-2-(2,6-Dioxopiperidin-3-yl)isoindolin-1,3-dione]: the IC50 in data set [1] was less than 15 nM; in data set [3] it was less than 1000 nM; in data set [4] it was less than 60 nM. Besides, the AUC(0-t) in data set [2] was greater than 10000 ng·h/mL. The compound further returned a Cmax in data set [2] greater than 2000 ng/mL.
For `O=C1CCC(N2C(=O)c3cccc(NCc4cnc(-c5ccccc5)o4)c3C2=O)C(=O)N1` (centres unmarked) [Example 22], in that order: less than 15 nM, less than 1000 nM, less than 60 nM, greater than 10000 ng·h/mL and greater than 2000 ng/mL.
On the same counts, the results for `O=C1CCC(N2C(=O)c3cccc(NCc4cnc(-c5ccc(C(F)(F)F)cc5)s4)c3C2=O)C(=O)N1` (centres unmarked) [Example 37] are less than 15 nM, less than 1000 nM, less than 60 nM, greater than 10000 ng·h/mL and greater than 2000 ng/mL.

What is called IC50 is the concentration at which inhibition is half-maximal. Broadly, the AUC(0-t) is the area under the concentration-time curve up to a stated or last time point. Read a high AUC(0-t) as high exposure. One may read the Cmax as the peak of the concentration-time curve.

Values taken from patent US20250270202A1, “SUBSTITUTED 4-AMINOISOINDOLINE COMPOUND, PREPARATION METHOD THEREFOR, PHARMACEUTICAL COMPOSITION THEREOF, AND USE THEREOF” (SHANGHAI INSTITUTE OF MATERIA MEDICA, CHINESE ACADEMY OF …, priority 2022, published 2025).
